For 38 substances, target mRNA inhibition results are on record in the OligoGym collection.

Where “and” joins values, the source holds several entries; their conditions need not be identical. Equal values may be shown once. After the bases stand the sugars from the 5' end (letter, count) and the backbone: PS all phosphorothioate, else s phosphorothioate and o phosphodiester by linkage. HELM strings list units from the 5' end as sugar, base in round brackets, then linkage (d deoxyribose, r ribose, m 2'-O-methyl, p phosphodiester). Methylation of C is not given here. [moe] = 2'-O-(2-methoxyethyl) (MOE); [sp] = phosphorothioate linkage; e = 2'-O-(2-methoxyethyl) (MOE); d = 2'-deoxy (DNA)

In one data set the target is HBV. The conditions noted are these: ASO, HepG2, 0.07 µM.
The target in the next data set is DGAT2. The conditions noted are these: ASO.

Turning to “RNA1{[moe](G)[sp].[moe](A)[sp].[moe](A)[sp].[moe](C)[sp].d(C)[sp].d(A)[sp].d(C)[sp].d(T)[sp].d(G)[sp].d(A)[sp].d(A)[sp].d(C)[sp].d(A)[sp].[moe](A)[sp].[moe](A)[sp].[moe](T)[sp].[moe](G)}$$$$V2.0”, the target mRNA inhibition with HBV is 33% and 45%.
In the case of “GTGTCTTCACCAGCTGGATG (sugars e5 d10 e5, PS)”, the target mRNA inhibition was found to be 49% in the data set with DGAT2 (HepG2, 0.12 µM) and 16% with DGAT2 (HepG2, 2.5 µM).
The substance “GTGCAGAATATGTACATGAG (sugars e5 d10 e5, PS)” showed a target mRNA inhibition with DGAT2 (HepG2, 0.12 µM) of 43%.
Turning to “GGGTTCTTGTCCTGGTCCCA (sugars e5 d10 e5, PS)”, the target mRNA inhibition with DGAT2 (HepG2, 2.5 µM) is 79% and 66%; with DGAT2 (HepG2, 10 µM), 90%.
“CCTCGAAGATCACCTGCTTG (sugars e5 d10 e5, PS)” returned a target mRNA inhibition with DGAT2 (HepG2, 0.12 µM) of 53%.
For the substance “CTTTGGATAGTCGATTTACC (sugars e5 d10 e5, PS)”, the target mRNA inhibition with DGAT2 (HepG2, 2.5 µM) was determined as 59%; with DGAT2 (HepG2, 10 µM), 88%.
The substance “CCACTGGAGCACTGAGATGA (sugars e2 d13 e5, PS)” came in with a target mRNA inhibition with DGAT2 (HepG2, 0.12 µM) of 54%.
On the same count and under the same terms, with “AGGGCCAGTTTCACAAAGCC (sugars e5 d10 e5, PS)” the figure was 33%.
Turning to “GCTCAGCACTGACATGGTAA (sugars e5 d10 e5, PS)”, the target mRNA inhibition with DGAT2 (HepG2, 2.5 µM) is 79% and 66%; with DGAT2 (HepG2, 10 µM), 96% and 92%.
Substance “TCTGGAACTTCTTCTGGACC (sugars e5 d10 e5, PS)” yielded a target mRNA inhibition with DGAT2 (HepG2, 0.12 µM) of 43%.
Turning to “GGGAAAGGTCTTCTCCAGCT (sugars e5 d10 e5, PS)”, the target mRNA inhibition with DGAT2 (HepG2, 2.5 µM) was 86% and 85%; with DGAT2 (HepG2, 10 µM), 92% and 91%.
Regarding “ATCAGCTATAGAATCAGACA (sugars e5 d10 e5, PS)”, the target mRNA inhibition in the data set with DGAT2 (HepG2, 2.5 µM) came out at 16%; with DGAT2 (HepG2, 10 µM) it was 75%.
In the data set with DGAT2 (HepG2, 0.12 µM), “TGACCAGGAAGGCCACACCT (sugars e5 d10 e5, PS)” returned a target mRNA inhibition of 15%.
Consider “AGCTCTCAAGTCTTCCTCCT (sugars e5 d10 e5, PS)”, for which the target mRNA inhibition is 62% and 76% with DGAT2 (HepG2, 2.5 µM); 89% and 92% with DGAT2 (HepG2, 10 µM).
“TCAGCCTAGAGGCCCTGGAC (sugars e5 d10 e5, PS)” returned a target mRNA inhibition in the data set with DGAT2 (HepG2, 0.12 µM) of 26%.
On the same count and under the same terms, next, “CATGGAGCTCAGAGACTCAG (sugars e2 d13 e5, PS)”: 71%.
On to “TCACATGCCTGAGGGCAGCA (sugars e5 d10 e5, PS)”, for which the target mRNA inhibition in the data set with DGAT2 (HepG2, 2.5 µM) was determined as 66%; with DGAT2 (HepG2, 10 µM), 86%.
On to “AAGCCCTTGCGGTTCCGCAG (sugars e5 d10 e5, PS)”, for which the target mRNA inhibition with DGAT2 (HepG2, 0.12 µM) turned out to be 67%.
“GCCAATGCCTAGGTCAC (sugars e3 d10 e4, PS)”: the target mRNA inhibition with DGAT2 (HepG2, 2.5 µM) is 85% and 93%; in the data set with DGAT2 (HepG2, 10 µM), 79% and 93%.
Regarding “GTAAGGGTATTCTGCTCATA (sugars e5 d10 e5, PS)”, in the data set with DGAT2 (HepG2, 10 µM), the target mRNA inhibition was 86% and 95%.
For the substance “ATTTCTTTTAAATAACCCAC (sugars e5 d10 e5, PS)”, the target mRNA inhibition in the data set with DGAT2 (HepG2, 0.12 µM) was determined as 1%.
Turning to “CAGGGTCTGCCACTCTCTAC (sugars e5 d10 e5, PS)”, the target mRNA inhibition was determined as 56% with DGAT2 (HepG2, 2.5 µM) and 85% in the data set with DGAT2 (HepG2, 10 µM).
Regarding “TTGAAATCCAATGCACCTTG (sugars e5 d10 e5, PS)”, the target mRNA inhibition with DGAT2 (HepG2, 2.5 µM) is 62%; with DGAT2 (HepG2, 10 µM) it was 93%.
Regarding “TGCAGCTTGGAGGAGGAGTA (sugars e5 d10 e5, PS)”, the target mRNA inhibition with DGAT2 (HepG2, 0.12 µM) turned out to be 36%.
As to “ACCCACTGGAGCACTGAGAT (sugars e3 d14 e3, PS)”, the target mRNA inhibition in the data set with DGAT2 (HepG2, 0.12 µM) worked out at 59%.
Consider “GGCAGATCTTCATTACATGA (sugars e5 d10 e5, PS)”, for which the target mRNA inhibition was 75% and 70% in the data set with DGAT2 (HepG2, 2.5 µM); 80% and 78% with DGAT2 (HepG2, 10 µM).
In the data set with DGAT2 (HepG2, 0.12 µM), “TTCGGACCCACTGTGACCTC (sugars e2 d13 e5, PS)” showed a target mRNA inhibition of 71%.
Consider “CACCTGTTACTACATGTCTA (sugars e5 d10 e5, PS)”, for which the target mRNA inhibition worked out at 68% with DGAT2 (HepG2, 2.5 µM) and 93% with DGAT2 (HepG2, 10 µM).
In the case of “TGGTCAGCAGGTTGTGTGTC (sugars e5 d10 e5, PS)”, the target mRNA inhibition is 55% and 43% with DGAT2 (HepG2, 0.12 µM); 19% in the data set with DGAT2 (HepG2, 2.5 µM); 72% with DGAT2 (HepG2, 10 µM); 83% with DGAT2 (HepG2, 20 µM).
Take “TACCTTATCTTTGTCCACAT (sugars e5 d10 e5, PS)”: in the data set with DGAT2 (HepG2, 10 µM), the target mRNA inhibition is 78% and 91%.
“TTAAATAACCCACAGACACC (sugars e5 d10 e5, PS)”: the target mRNA inhibition with DGAT2 (HepG2, 0.12 µM) was 0%.
Regarding “TGCCACTCCCATTCTTTGAA (sugars e5 d10 e5, PS)”, the target mRNA inhibition came out at 0% in the data set with DGAT2 (HepG2, 2.5 µM) and 62% in the data set with DGAT2 (HepG2, 10 µM).
The substance “ACTGGTCCTGCAGTTTCAGG (sugars e5 d10 e5, PS)” gave a target mRNA inhibition with DGAT2 (HepG2, 0.12 µM) of 55%.
As for “AGAAGAGCAAAGGCTTGCTT (sugars e5 d10 e5, PS)”, the target mRNA inhibition with DGAT2 (HepG2, 2.5 µM) is 74% and 72%; with DGAT2 (HepG2, 10 µM), 94% and 93%.
In the data set with DGAT2 (HepG2, 0.12 µM), “CATGGAGCTCAGAGACTCAG (sugars e5 d10 e5, PS)” had a target mRNA inhibition of 65%.
As to “CAGGCATGGAGCTCAGAGAC (sugars e3 d14 e3, PS)”, in the data set with DGAT2 (HepG2, 0.12 µM), the target mRNA inhibition was determined as 76%.
Same read-out and setting: next, “GGTGGTCAGCAGGTTGTGTG (sugars e5 d10 e5, PS)”: 29%.
On the same count and under the same terms, next, “AGAGGCCCTGGACACTGGCC (sugars e5 d10 e5, PS)”: 32%.
